These results are taken from patent US11566030B2, “Substituted 2,6-dihydropyrrolo[3,4-c]pyrazoles as pyruvate kinase activators” (priority 2021, dated 2023).

As usually defined, the AC50 is the concentration at which the activity in the assay is half-maximal.

The structures appear in SMILES notation. Read-outs that look alike come from different tables or passages of the source.

For assay [1], the system named is mouse model of beta-thalassemia. The settings on record: cited from earlier work.
The target of assay [2] is T1, Human pyruvate kinase R (PKR) (Homo sapiens, UniProt P30613).
T1 construct: Human pyruvate kinase R (PKR), residues 14-574; 6xHis-8xArg-SUMO (N, cleaved yes); host or cells: E. coli
T1 sequence (P30613 14-574): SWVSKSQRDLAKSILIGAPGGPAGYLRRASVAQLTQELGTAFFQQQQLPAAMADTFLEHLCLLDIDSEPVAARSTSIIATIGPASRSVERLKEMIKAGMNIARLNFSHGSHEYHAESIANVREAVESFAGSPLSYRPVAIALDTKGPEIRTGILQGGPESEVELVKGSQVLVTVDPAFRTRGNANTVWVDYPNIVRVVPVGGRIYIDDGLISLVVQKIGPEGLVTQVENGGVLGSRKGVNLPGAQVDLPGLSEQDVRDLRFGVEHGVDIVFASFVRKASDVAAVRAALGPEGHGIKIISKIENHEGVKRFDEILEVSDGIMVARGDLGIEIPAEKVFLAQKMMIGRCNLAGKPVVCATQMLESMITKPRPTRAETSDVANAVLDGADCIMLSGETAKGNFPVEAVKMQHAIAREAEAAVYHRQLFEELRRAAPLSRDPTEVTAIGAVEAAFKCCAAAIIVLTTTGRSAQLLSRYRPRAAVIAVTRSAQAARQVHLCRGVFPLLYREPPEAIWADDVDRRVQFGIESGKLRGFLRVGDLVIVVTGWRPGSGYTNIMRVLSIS
In words: Biochemical assay for activation of pyruvate kinase R (Kinase-Glo luminescence, ATP generation). The conditions noted are these: for Emax: read-out: PKR % activation, maximal activation level achieved with each compound relative to the activation level achieved by AG-348 @ 10 μM. The method, boiled down: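 Recombinant human PKR (residues 14-574) expressed in E. coli with His-Arg-SUMO tag, tag cleaved, purified by Ni-NTA, anion exchange and size exclusion. Activation read as ATP generation by Kinase-Glo luminescence.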

The mark [3] stands for this setting: PKR AC50 (nM), 0.1 nM PKR, 0.3 mM ADP, 0.1 mM PEP, 1% DMSO.

As to `O=C(c1ccc(NS(=O)(=O)c2cccc3cccnc23)cc1)N1CCN(CC2CC2)CC1` [AG-348, Mitapivat], in assay [1], the ATP levels result is reported as “increased”, the PK activity entry is given as “increased” and the RBC parameters entry is given as “improved”.
In assay [2] (setting [3]), `O=C([C@H](CO)c1ccccc1)N1Cc2cn(S(=O)(=O)c3cnn(C(F)F)c3)nc2C1` [Compound 116, (2S)-1-(2-{[1-(difluoromethyl)-1H-pyrazol-4-yl]sulfonyl}-2H,4H,5H,6H-pyrrolo[3,4-c]pyrazol-5-yl)-3-hydroxy-2-phenylpropan-1-one] showed an AC50 of 34 nM. Also, the Emax in assay [2] was 53%.
In turn, `O=C([C@H](CO)c1ccccc1Cl)N1Cc2cn(S(=O)(=O)c3ccn(CC(F)F)n3)nc2C1` [Compound 13, (2S)-2-(2-chlorophenyl)-1-(2-{[1-(2,2-difluoroethyl)-1H-pyrazol-3-yl]sulfonyl}-2H,4H,5H,6H-pyrrolo[3,4-c]pyrazol-5-yl)-3-hydroxypropan-1-one] displayed an AC50 in assay [2] (setting [3]) of 7 nM. In addition, the Emax in assay [2] is 133%.
For `COCCn1cc(S(=O)(=O)n2cc3c(n2)CN(C(=O)[C@H](CO)c2ccccc2F)C3)cn1` [Compound 60, (2S)-2-(2-fluorophenyl)-3-hydroxy-1-{2-[1-(2-methoxyethyl)pyrazol-4-ylsulfonyl]-4H,6H-pyrrolo[3,4-c]pyrazol-5-yl}propan-1-one], in that order: 28 nM and 74%.
Take `Cc1c(S(=O)(=O)n2cc3c(n2)CN(C(=O)[C@@H](CO)c2ccccc2F)C3)cnn1CC(F)F` [Compound 100, (R)-1-(2-((1-(2,2-difluoroethyl)-5-methyl-1H-pyrazol-4-yl)sulfonyl)-2,6 dihydropyrrolo[3,4-c]pyrazol-5(4H)-yl)-2-(2-fluorophenyl)-3-hydroxypropan-1-one]: in assay [2], half-maximal activity (AC50) was put at 380 nM and the Emax came out at 126%.
For `O=C([C@H](CO)c1ncccc1F)N1Cc2cn(S(=O)(=O)c3ccn(CC(F)F)n3)nc2C1` (single isomer, unassigned) [Compound 31], in that order: 3600 nM and 45%.
As to `O=C([C@H](O)c1ncccc1F)N1Cc2cn(S(=O)(=O)c3ccn(CC(F)F)n3)nc2C1` (single isomer, unassigned) [Compound 28], in assay [2] (setting [3]), the AC50 was determined as 3400 nM. Also, the Emax in assay [2] turned out to be 85%.
`COC(C(=O)N1Cc2cn(S(=O)(=O)c3cnn(CC(F)F)c3)nc2C1)c1ncccc1F` (centres unmarked) [Compound 115, 1-(2-{[1-(2,2-difluoroethyl)-1H-pyrazol-4-yl]sulfonyl}-2H,4H,5H,6H-pyrrolo[3,4-c]pyrazol-5-yl)-2-(3-fluoropyridin-2-yl)-2-methoxyethan-1-one]: in assay [2], the AC50 worked out at 2100 nM and the Emax is 96%.
`O=C([C@H](CO)c1ccccc1Cl)N1Cc2cn(S(=O)(=O)c3cnn(CC(F)(F)F)c3)nc2C1` [Compound 47, (2S)-2-(2-chlorophenyl)-3-hydroxy-1-[2-[1-(2,2,2-trifluoroethyl)pyrazol-4-ylsulfonyl]-4H,6H-pyrrolo[3,4-c]pyrazol-5-yl]propan-1-one]: in assay [2] (setting [3]), the AC50 is 10 nM. Also, the Emax in assay [2] came out at 108%.
`O=C([C@H](CO)c1ccccc1F)N1Cc2cn(S(=O)(=O)c3cnn(CCF)c3)nc2C1` [Compound 5, (2S)-1-(2-{[1-(2-fluoroethyl)-1H-pyrazol-4-yl]sulfonyl}-2H,4H,5H,6H-pyrrolo[3,4-c]pyrazol-5-yl)-2-(2-fluorophenyl)-3-hydroxypropan-1-one] had an AC50 in assay [2] (setting [3]) of 2.7 nM. For the same compound, the Emax in assay [2] is 88%.
For `COCCn1ccc(S(=O)(=O)n2cc3c(n2)CN(C(=O)[C@H](CO)c2ccccc2F)C3)n1` [Compound 44, (2S)-2-(2-fluorophenyl)-3-hydroxy-1-[2-[1-(2-methoxyethyl)pyrazol-3-ylsulfonyl]-4H,6H-pyrrolo[3,4-c]pyrazol-5-yl]propan-1-one], in that order: 110 nM and 53%.
With `Cc1c(S(=O)(=O)n2cc3c(n2)CN(C(=O)[C@H](CO)c2ccccc2F)C3)cnn1CC(F)F` [Compound 14, (2S)-1-(2-{[1-(2,2-difluoroethyl)-5-methyl-1H-pyrazol-4-yl]sulfonyl}-2H,4H,5H,6H-pyrrolo[3,4-c]pyrazol-5-yl)-2-(2-fluorophenyl)-3-hydroxypropan-1-one], in assay [2], the AC50 was 7.1 nM and the Emax worked out at 129%.
For `C[C@H](O)[C@@H](C(=O)N1Cc2cn(S(=O)(=O)c3cnn(CC(F)F)c3)nc2C1)c1ccccc1` [Compound 6, (2S,3S)-1-(2-{[1-(2,2-difluoroethyl)-1H-pyrazol-4-yl]sulfonyl}-2H,4H,5H,6H-pyrrolo[3,4-c]pyrazol-5-yl)-3-hydroxy-2-phenylbutan-1-one], in that order: 11 nM and 86%.
For `O=C([C@H](CO)c1cccc(F)c1Cl)N1Cc2cn(S(=O)(=O)c3cnn(CC(F)F)c3)nc2C1` [Compound 55, (2S)-2-(2-chloro-3-fluorophenyl)-1-{2-[1-(2,2-difluoroethyl)pyrazol-4-ylsulfonyl]-4H,6H-pyrrolo[3,4-c]pyrazol-5-yl}-3-hydroxypropan-1-one], in that order: 5.1 nM and 98%.
The compound `O=C([C@@H](CO)c1ccccc1F)N1Cc2cn(S(=O)(=O)c3cnn(CC(F)(F)F)c3)nc2C1` [Compound 33, (2R)-2-(2-fluorophenyl)-3-hydroxy-1-[2-[1-(2,2,2-trifluoroethyl)pyrazol-4-ylsulfonyl]-4H,6H-pyrrolo[3,4-c]pyrazol-5-yl]propan-1-one] came in with an AC50 in assay [2] (setting [3]) of 450 nM. Moreover, the Emax in assay [2] amounted to 89%.
For `C[C@@](CO)(C(=O)N1Cc2cn(S(=O)(=O)c3cnn(CC(F)F)c3)nc2C1)c1ccccn1` (single isomer, unassigned) [Compound 123], in that order: above 10000 nM and 123%.
For `O=C([C@H](CO)c1ccccc1)N1Cc2cn(S(=O)(=O)c3cn(CC(F)F)cn3)nc2C1` [Compound 24, (2S)-1-(2-{[1-(2,2-difluoroethyl)-1H-imidazol-4-yl]sulfonyl}-2H,4H,5H,6H-pyrrolo[3,4-c]pyrazol-5-yl)-3-hydroxy-2-phenylpropan-1-one], in that order: 64 nM and 93%.
In the case of `Cc1c(S(=O)(=O)n2cc3c(n2)CN(C(=O)[C@H](CO)c2ccccc2)C3)cnn1CC(F)F` [Compound 11, (2S)-1-(2-{[1-(2,2-difluoroethyl)-5-methyl-1H-pyrazol-4-yl]sulfonyl}-2H,4H,5H,6H-pyrrolo[3,4-c]pyrazol-5-yl)-3-hydroxy-2-phenylpropan-1-one], in assay [2], the activity was half-maximal at 5.7 nM (AC50) and the Emax is 92%.
Turning to `O=C([C@H](CO)c1ccccc1)N1Cc2cn(S(=O)(=O)c3ccc(-c4ccccc4)s3)nc2C1` [Compound 18, (2S)-3-hydroxy-2-phenyl-1-{2-[(5-phenylthiophen-2-yl)sulfonyl]-2H,4H,5H,6H-pyrrolo[3,4-c]pyrazol-5-yl}propan-1-one], in assay [2] (setting [3]), the AC50 is 72 nM. Besides, in assay [2], the Emax was found to be 70%.
Consider `C[C@@H](O)[C@@H](C(=O)N1Cc2cn(S(=O)(=O)c3cnn(CC(F)F)c3)nc2C1)c1ccccc1` [Compound 7, (2S,3R)-1-(2-{[1-(2,2-difluoroethyl)-1H-pyrazol-4-yl]sulfonyl}-2H,4H,5H,6H-pyrrolo[3,4-c]pyrazol-5-yl)-3-hydroxy-2-phenylbutan-1-one], for which, in assay [2], the activity was half-maximal at 17 nM (AC50) and the Emax was determined as 102%.
In assay [2] (setting [3]), `CC(C)n1cc(S(=O)(=O)n2cc3c(n2)CN(C(=O)[C@H](CO)c2ccccc2F)C3)cn1` [Compound 57, (2S)-2-(2-fluorophenyl)-3-hydroxy-1-[2-(1-isopropylpyrazol-4-ylsulfonyl)-4H,6H-pyrrolo[3,4-c]pyrazol-5-yl]propan-1-one] gave an AC50 of 6.7 nM. Moreover, the Emax in assay [2] is 50%.
For `Cc1cn(CC(F)(F)F)nc1S(=O)(=O)n1cc2c(n1)CN(C(=O)[C@H](CO)c1ccccc1F)C2` [Compound 68, (2S)-2-(2-fluorophenyl)-3-hydroxy-1-{2-[4-methyl-1-(2,2,2-trifluoroethyl)pyrazol-3-ylsulfonyl]-4H,6H-pyrrolo[3,4-c]pyrazol-5-yl}propan-1-one], in that order: 2100 nM and 9%.
Turning to `O=C([C@H](CO)c1ccccc1)N1Cc2cn(S(=O)(=O)c3ccn(CC(F)F)n3)nc2C1` [Compound 72, (2S)-1-{2-[1-(2,2-difluoroethyl)pyrazol-3-ylsulfonyl]-4H,6H-pyrrolo[3,4-c]pyrazol-5-yl}-3-hydroxy-2-phenylpropan-1-one], in assay [2], the AC50 came to 9.6 nM and the Emax was 98%.
For `O=C([C@@H](CO)c1ccccc1F)N1Cc2cn(S(=O)(=O)c3cnn(CCC(F)(F)F)c3)nc2C1` [Compound 59, (R)-2-(2-fluorophenyl)-3-hydroxy-1-(2-((1-(3,3,3-trifluoropropyl)-1H-pyrazol-4-yl)sulfonyl)-2,6-dihydropyrrolo[3,4-c]pyrazol-5(4H)-yl)propan-1-one], in that order: 1600 nM and 55%.
As to `Cc1c(S(=O)(=O)n2cc3c(n2)CN(C(=O)[C@@H](CO)c2ccccc2F)C3)cnn1CCF` [Compound 97, (2R)-1-{2-[1-(2-fluoroethyl)-5-methylpyrazol-4-ylsulfonyl]-4H,6H-pyrrolo[3,4-c]pyrazol-5-yl}-2-(2-fluorophenyl)-3-hydroxypropan-1-one], in assay [2], half-maximal activity (AC50) was put at 550 nM and the Emax is 102%.
For `Cc1c(S(=O)(=O)n2cc3c(n2)CN(C(=O)[C@@H](CO)c2ccccc2)C3)cnn1CC(F)F` [Compound 89, (R)-1-(2-((1-(2,2-difluoroethyl)-5-methyl-1H-pyrazol-4-yl)sulfonyl)-2,6-dihydropyrrolo[3,4-c]pyrazol-5(4H)-yl)-3-hydroxy-2-phenylpropan-1-one], in assay [2], the activity was half-maximal at 1200 nM (AC50) and the Emax turned out to be 105%.
